Measured values from ChEMBL document CHEMBL1131437, “Resistance-modifying agents. 5. Synthesis and biological properties of quinazolinone inhibitors of the DNA repair enzyme poly(ADP-ribose) polymerase (PARP)” (J Med Chem, 1998).

Each compound was assayed against Poly [ADP-ribose] polymerase 1 (Mus musculus, UniProt P11103) (assay: biochemical).
Sequence of Poly [ADP-ribose] polymerase 1 (P11103 whole entry): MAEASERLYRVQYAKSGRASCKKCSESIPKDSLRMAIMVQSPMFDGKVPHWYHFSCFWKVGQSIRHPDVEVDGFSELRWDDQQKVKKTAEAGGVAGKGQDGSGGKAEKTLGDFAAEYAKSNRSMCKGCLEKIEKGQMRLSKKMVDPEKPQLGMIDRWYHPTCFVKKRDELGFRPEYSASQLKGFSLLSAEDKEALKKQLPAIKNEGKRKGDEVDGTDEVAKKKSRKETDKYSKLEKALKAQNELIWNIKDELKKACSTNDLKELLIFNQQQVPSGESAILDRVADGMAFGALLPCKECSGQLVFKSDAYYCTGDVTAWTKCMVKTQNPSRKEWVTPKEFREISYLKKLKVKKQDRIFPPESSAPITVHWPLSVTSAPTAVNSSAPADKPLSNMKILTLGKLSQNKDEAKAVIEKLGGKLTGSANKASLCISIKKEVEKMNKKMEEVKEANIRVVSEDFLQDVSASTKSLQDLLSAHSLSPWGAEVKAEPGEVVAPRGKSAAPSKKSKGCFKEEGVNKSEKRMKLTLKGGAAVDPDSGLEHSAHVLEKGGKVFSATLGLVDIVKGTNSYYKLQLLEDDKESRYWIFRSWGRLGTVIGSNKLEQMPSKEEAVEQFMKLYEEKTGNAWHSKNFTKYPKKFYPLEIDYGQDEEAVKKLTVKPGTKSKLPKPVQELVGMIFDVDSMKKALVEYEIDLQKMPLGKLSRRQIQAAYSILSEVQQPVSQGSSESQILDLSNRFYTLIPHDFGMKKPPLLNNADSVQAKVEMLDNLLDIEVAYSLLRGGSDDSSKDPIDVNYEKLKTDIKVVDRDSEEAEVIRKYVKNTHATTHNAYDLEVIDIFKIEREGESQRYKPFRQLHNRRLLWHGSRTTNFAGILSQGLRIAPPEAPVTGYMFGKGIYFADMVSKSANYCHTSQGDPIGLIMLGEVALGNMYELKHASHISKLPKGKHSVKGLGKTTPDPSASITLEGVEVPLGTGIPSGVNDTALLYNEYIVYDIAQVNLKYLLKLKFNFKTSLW
Description: Inhibition of the DNA repair Poly (ADP-ribose) polymerase 1, in permeabilised L1210 murine leukemia cells

Q: Which IC50 does the source give for `Cc1nc(O)c2cccc(C)c2n1` here?
A: The IC50 was 390 nM.

Q: `Cc1cccc2c(O)nc(-c3ccc(C#N)cc3)nc12` was tested. Which IC50 did it give?
A: Its IC50 is 270 nM.

Q: For `COc1cccc2c(=O)n(C)c(C)nc12`, which IC50 is on record?
A: The IC50 was over 100000 nM.

Q: For `Cc1cccc2c(O)nc(-c3ccc(N)cc3)nc12`, which IC50 is on record?
A: The IC50 was 440 nM.

Q: For `Nc1ccc(-c2nc(O)c3cccc(O)c3n2)cc1`, which IC50 is on record?
A: The IC50 was 320 nM.

Q: Which IC50 does the source give for `Cc1cccc2c(=O)[nH]c(-c3ccc(O)cc3)nc12` here?
A: Its IC50 is 220 nM.

Q: For `Cc1nc2c(O)cccc2c(=O)n1C`, which IC50 is on record?
A: The IC50 was over 100000 nM.

Q: `COc1ccc(-c2nc3c(C)cccc3c(=O)[nH]2)cc1` was tested. Which IC50 did it give?
A: The IC50 was 190 nM.

Q: How did the IC50 turn out when `COc1cccc2c(O)nc(-c3ccc(N)cc3)nc12` was run?
A: Its IC50 is over 300 nM.

Q: `COc1cccc2c(=O)[nH]c(-c3ccc(N=[N+]=[N-])cc3)nc12` was tested. Which IC50 did it give?
A: Its IC50 is 1930 nM.

Q: Which IC50 does the source give for `COc1cccc2c(O)nc(-c3ccc([N+](=O)[O-])cc3)nc12` here?
A: Its IC50 is 850 nM.

Q: How did the IC50 turn out when `COc1cccc2c(O)nc(-c3ccc(C(F)(F)F)cc3)nc12` was run?
A: The IC50 was 39000 nM.

Q: Which IC50 does the source give for `Cc1cccc2c(=O)[nH]c(-c3ccccc3)nc12` here?
A: Its IC50 is 870 nM.

Q: `NC(=O)c1cccc(N)c1` [3-AMINOBENZAMIDE] was tested. Which IC50 did it give?
A: The IC50 was 19100 nM.

Q: For `COc1cccc2c(O)nc(-c3ccc(C#N)cc3)nc12`, which IC50 is on record?
A: Its IC50 is 1340 nM.

Q: How did the IC50 turn out when `Cc1cccc2c(O)nc(-c3ccc(C(F)(F)F)cc3)nc12` was run?
A: Its IC50 is over 10000 nM.
